Data reported in ChEMBL document CHEMBL1137750, “Synthesis and biological evaluation of 4,5-diphenyloxazolone derivatives on route towards selective COX-2 inhibitors” (Eur J Med Chem, 2009).

Legend:
[1] = biological target: T1, Prostaglandin G/H synthase 1 (Ovis aries) (UniProt P05979); assay: Inhibition of ovine COX1 at 10 uM by enzyme immunoassay relative to control
T1 sequence (whole entry): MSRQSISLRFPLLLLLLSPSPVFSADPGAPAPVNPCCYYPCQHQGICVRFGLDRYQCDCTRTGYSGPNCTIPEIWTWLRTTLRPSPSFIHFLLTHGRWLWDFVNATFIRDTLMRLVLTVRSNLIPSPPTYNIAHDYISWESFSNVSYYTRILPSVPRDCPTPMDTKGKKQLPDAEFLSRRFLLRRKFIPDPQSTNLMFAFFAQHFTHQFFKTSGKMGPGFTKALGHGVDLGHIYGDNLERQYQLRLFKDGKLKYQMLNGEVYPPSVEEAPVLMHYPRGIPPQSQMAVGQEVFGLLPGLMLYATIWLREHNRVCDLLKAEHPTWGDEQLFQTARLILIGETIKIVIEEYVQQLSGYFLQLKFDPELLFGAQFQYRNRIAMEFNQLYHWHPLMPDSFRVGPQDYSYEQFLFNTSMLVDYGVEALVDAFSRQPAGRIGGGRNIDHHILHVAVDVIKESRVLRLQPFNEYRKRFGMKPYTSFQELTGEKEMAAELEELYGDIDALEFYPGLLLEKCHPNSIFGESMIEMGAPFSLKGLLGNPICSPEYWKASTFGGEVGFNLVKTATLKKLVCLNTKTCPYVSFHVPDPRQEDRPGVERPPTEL

[2] = biological target: T2, Prostaglandin G/H synthase 1 (Ovis aries, UniProt P05979); assay: Inhibition of ovine COX1 by enzyme immunoassay
T2 sequence (P05979 whole entry): T1 sequence (whole entry)

[3] = biological target: T1, Prostaglandin G/H synthase 1 (Ovis aries); assay: Inhibition of ovine COX1 at 100 uM by enzyme immunoassay relative to control
Ovis aries = species: Ovis aries; assay: Selectivity index, raio of IC50 for ovine COX1 to IC50 for ovine COX2
[4] = biological target: T3, Prostaglandin G/H synthase 2 (Homo sapiens) (UniProt P35354); assay: Inhibition of COX2 in LPS-stimulated human whole blood assessed as PGE2 production by enzyme immunoassay; assay type: tissue-based; conditions: concentration not given here
T3 sequence (whole entry): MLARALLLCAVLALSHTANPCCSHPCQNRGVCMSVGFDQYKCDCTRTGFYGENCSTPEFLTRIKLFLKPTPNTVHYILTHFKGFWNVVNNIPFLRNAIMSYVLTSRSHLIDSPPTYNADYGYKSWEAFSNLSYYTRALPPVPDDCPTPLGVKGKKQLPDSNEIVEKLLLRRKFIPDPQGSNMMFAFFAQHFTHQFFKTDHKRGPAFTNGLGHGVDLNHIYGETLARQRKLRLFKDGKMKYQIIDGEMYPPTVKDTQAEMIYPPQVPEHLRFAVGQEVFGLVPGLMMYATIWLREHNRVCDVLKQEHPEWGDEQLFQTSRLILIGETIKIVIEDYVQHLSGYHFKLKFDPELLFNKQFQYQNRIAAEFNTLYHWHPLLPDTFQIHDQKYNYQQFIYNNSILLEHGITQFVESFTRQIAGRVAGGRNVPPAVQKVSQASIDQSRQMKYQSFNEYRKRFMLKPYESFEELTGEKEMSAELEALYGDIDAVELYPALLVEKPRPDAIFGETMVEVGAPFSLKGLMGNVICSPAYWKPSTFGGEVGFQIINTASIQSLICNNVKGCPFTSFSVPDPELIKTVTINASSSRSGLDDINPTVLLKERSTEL

[5] = biological target: Prostaglandin G/H synthase 1 (Homo sapiens) (UniProt P23219); assay: Inhibition of COX1 in human whole blood assessed as TXB2 production at 10 uM by enzyme immunoassay
Prostaglandin G/H synthase 1 (Homo sapiens), sequence (P23219 whole entry): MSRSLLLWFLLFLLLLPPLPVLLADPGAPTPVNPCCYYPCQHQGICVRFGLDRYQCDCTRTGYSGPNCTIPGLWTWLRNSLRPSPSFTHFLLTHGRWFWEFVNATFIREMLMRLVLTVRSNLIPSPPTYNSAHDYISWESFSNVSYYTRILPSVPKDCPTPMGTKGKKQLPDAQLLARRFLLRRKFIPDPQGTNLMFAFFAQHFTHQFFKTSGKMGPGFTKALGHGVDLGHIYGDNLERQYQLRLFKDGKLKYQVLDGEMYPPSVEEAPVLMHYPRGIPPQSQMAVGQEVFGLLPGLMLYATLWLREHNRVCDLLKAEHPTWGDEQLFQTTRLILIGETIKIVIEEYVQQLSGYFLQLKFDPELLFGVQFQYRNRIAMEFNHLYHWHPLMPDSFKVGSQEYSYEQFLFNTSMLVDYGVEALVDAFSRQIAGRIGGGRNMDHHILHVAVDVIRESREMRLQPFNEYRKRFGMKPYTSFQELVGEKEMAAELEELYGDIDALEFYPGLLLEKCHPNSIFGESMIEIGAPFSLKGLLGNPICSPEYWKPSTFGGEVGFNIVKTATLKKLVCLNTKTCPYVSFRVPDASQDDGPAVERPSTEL

| inhibition [1] [%] | IC50 [2] [µM] | inhibition [3] [%] | Ratio IC50 (Ovis aries) | inhibition [4] [%] | inhibition [5] [%] | SMILES |
| --- | --- | --- | --- | --- | --- | --- |
| 71.9 | – | – | – | – | – | COc1ccc2c(c1)c(CC(=O)O)c(C)n2C(=O)c1ccc(Cl)cc1 |
| 3.56 | > 100 | 19.3 | > 50 | 85 | 7 | Cn1c(-c2ccccc2)c(-c2ccc(S(N)(=O)=O)cc2)oc1=O |
